Among the test systems are MOLT-4 leukemia; HL-60(TB) leukemia; HCT-116 colon; LOX IMVI melanoma; UO-31 renal; UACC-62 melanoma; ACHN renal; MDA-MB-435; DU-145 prostate; IGROV1 ovarian.
Experiment in all cases: inhibition of tumour cell growth, NCI panel, 48 h

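Values below derive from 48-hour exposures of cells grown in 96-well plates, with endpoints linearly interpolated between the two concentrations bracketing the appropriate inhibition level. GI50 = concentration required for 50% inhibition of growth. TGI marks complete inhibition of growth.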

On to `CC1(C)C(=O)OC(n2cc(F)c(=O)[nH]c2=O)C1=O` (stereo unspecified), for which the TGI in the experiment with MOLT-4 leukemia, in the experiment on HL-60(TB) leukemia, in the experiment with HCT-116 colon, in the experiment on LOX IMVI melanoma, in the experiment on UO-31 renal and in the experiment with UACC-62 melanoma was greater than 100 µM throughout. The compound further showed a TGI in the experiment on ACHN renal greater than 100 µM.

For the compound `Cc1ccccc1NC(=O)Cc1nc2ccccc2s1`, the TGI stood at 41.5 µM in the experiment with MOLT-4 leukemia; 62 µM in the experiment on HL-60(TB) leukemia; 31 µM with HCT-116 colon; 30.5 µM with LOX IMVI melanoma; 23.7 µM in the experiment with UO-31 renal; 35.7 µM in the experiment on UACC-62 melanoma. For the same compound, the TGI in the experiment on ACHN renal was determined as 29.7 µM.

Turning to `CCN(CC)CCNC(=O)c1cccc2c1-c1ccccc1C2=O`, the GI50 with MDA-MB-435 was greater than 100 µM; in the experiment with DU-145 prostate, greater than 100 µM; in the experiment on HCT-116 colon, 55.9 µM; with LOX IMVI melanoma, greater than 100 µM; in the experiment on UO-31 renal, greater than 100 µM; in the experiment on IGROV1 ovarian, greater than 100 µM. Further, the GI50 with UACC-62 melanoma and with ACHN renal was greater than 100 µM throughout. Also, the TGI with MDA-MB-435, in the experiment with DU-145 prostate, in the experiment with HCT-116 colon, in the experiment on LOX IMVI melanoma, with UO-31 renal and in the experiment on IGROV1 ovarian was greater than 100 µM in each case. Besides, the TGI with UACC-62 melanoma and in the experiment with ACHN renal was greater than 100 µM in each case.

Regarding `CC(=O)[CH-]C(=O)c1ccccc1.CC(=O)[CH-]C(=O)c1ccccc1.Cl.[O-]c1ccnc2ccccc12.[O-]c1ccnc2ccccc12.[Ti+4]`, the GI50 with MOLT-4 leukemia, with HL-60(TB) leukemia, with LOX IMVI melanoma, with UO-31 renal, with IGROV1 ovarian and in the experiment on UACC-62 melanoma was greater than 100 µM each time. Moreover, the GI50 in the experiment on ACHN renal is greater than 100 µM. The TGI with MOLT-4 leukemia, in the experiment with HL-60(TB) leukemia, in the experiment on LOX IMVI melanoma, with UO-31 renal, in the experiment with IGROV1 ovarian and in the experiment on UACC-62 melanoma was greater than 100 µM in each case. This compound displayed a TGI in the experiment on ACHN renal greater than 100 µM.

Take `Cc1ccc(S(=O)(=O)OCOS(=O)(=O)c2ccc(C)cc2)cc1`: the TGI in the experiment with MOLT-4 leukemia, in the experiment with HL-60(TB) leukemia, in the experiment with HCT-116 colon, in the experiment with LOX IMVI melanoma, in the experiment with UO-31 renal and in the experiment with IGROV1 ovarian was greater than 100 µM throughout. In the experiment on ACHN renal, this compound had a TGI greater than 100 µM.

In the case of `CCOC(=O)C1=C(OC(OCC)C([Se]c2ccccc2)C(C)C)CCC1` (stereo unspecified), the TGI in the experiment on MOLT-4 leukemia amounted to 45.4 µM; in the experiment with HL-60(TB) leukemia, 11.2 µM; in the experiment on HCT-116 colon, 26 µM; in the experiment on LOX IMVI melanoma, 6.93 µM; in the experiment on UO-31 renal, 61 µM; with IGROV1 ovarian it was 52.4 µM. The values for the TGI in the experiment on UACC-62 melanoma and in the experiment with ACHN renal were 33.6 µM and 62 µM, respectively.

For the compound `COC(=O)C1=CC2C(=O)OC1C1C(=O)NC(=O)C21` (stereo unspecified), the TGI with MOLT-4 leukemia, with HL-60(TB) leukemia, with HCT-116 colon, in the experiment with LOX IMVI melanoma, in the experiment with UO-31 renal and in the experiment with IGROV1 ovarian was greater than 100 µM in each case. In addition, the TGI with UACC-62 melanoma and with ACHN renal was greater than 100 µM each time.

On to `O=C(/C=C/c1ccc(Cl)c(Cl)c1)c1ccccc1Cl`, for which the TGI in the experiment with MOLT-4 leukemia was found to be 98.4 µM; with HL-60(TB) leukemia, 16.7 µM; with HCT-116 colon it was 9.95 µM; in the experiment with LOX IMVI melanoma, 27.7 µM; in the experiment with UO-31 renal, 27.8 µM; with IGROV1 ovarian, 24.2 µM. Besides, the TGI is 25.5 µM in the experiment on UACC-62 melanoma and 28.6 µM in the experiment on ACHN renal.

Regarding `CCC12C=CCN(CCc3c([nH]c4ccccc34)/C=C\1)C2` (stereo unspecified), the TGI in the experiment with MOLT-4 leukemia, in the experiment with HL-60(TB) leukemia, in the experiment on HCT-116 colon, with LOX IMVI melanoma, in the experiment on UO-31 renal and in the experiment on IGROV1 ovarian was greater than 100 µM each time. For the same compound, the TGI with UACC-62 melanoma and in the experiment with ACHN renal was greater than 100 µM throughout.

As to `O=c1nc2sc3ccccc3c(=O)n2[nH]1`, the TGI in the experiment with MOLT-4 leukemia, in the experiment on HL-60(TB) leukemia, in the experiment with HCT-116 colon, in the experiment with LOX IMVI melanoma, with UO-31 renal and in the experiment on IGROV1 ovarian was greater than 100 µM throughout. Also, the TGI with UACC-62 melanoma and in the experiment with ACHN renal was greater than 100 µM in each case.

As for `CCOC(=O)c1cc(=O)n(C)c(=O)n1C`, the TGI in the experiment with MOLT-4 leukemia, in the experiment on HCT-116 colon, in the experiment with LOX IMVI melanoma, in the experiment on UO-31 renal, in the experiment on IGROV1 ovarian and in the experiment with UACC-62 melanoma was greater than 100 µM throughout. In the experiment on ACHN renal, this compound showed a TGI greater than 100 µM.

Turning to `Cc1ccc2c(c1)-c1c3c(nn1C)-c1ccccc1SC3O2` (stereo unspecified), the TGI in the experiment with MOLT-4 leukemia is greater than 100 µM; with HL-60(TB) leukemia, greater than 100 µM; in the experiment with HCT-116 colon it was greater than 100 µM; in the experiment with LOX IMVI melanoma it was greater than 100 µM; in the experiment on UO-31 renal, 88.7 µM; with IGROV1 ovarian it was greater than 100 µM. The same compound gave a TGI in the experiment on ACHN renal greater than 100 µM.

Turning to `C=C1C(=O)O[C@H](c2ccoc2)C[C@@H]1[C@@]1(C)CCCC2(C)C(=O)OCC21` (stereo partly specified), the TGI in the experiment on MOLT-4 leukemia, in the experiment with HCT-116 colon, in the experiment on LOX IMVI melanoma, in the experiment with UO-31 renal, in the experiment on IGROV1 ovarian and with UACC-62 melanoma was greater than 100 µM each time. In addition, the TGI in the experiment with ACHN renal is greater than 100 µM.

Regarding `Cc1cccc(NC(=O)C(=O)C(C2OC(=O)c3ccccc32)[N+](=O)[O-])c1C` (stereo unspecified), the TGI in the experiment on MOLT-4 leukemia is greater than 100 µM; in the experiment on HL-60(TB) leukemia, 6.94 µM; in the experiment with HCT-116 colon, 21.3 µM; in the experiment with LOX IMVI melanoma it was 6.26 µM; with UO-31 renal, 21.4 µM; in the experiment with IGROV1 ovarian, 27.7 µM. The TGI in the experiment on UACC-62 melanoma is 23.1 µM; with ACHN renal, 22.9 µM.

Regarding `O=C1c2ccccc2C(=O)N1CCCOCc1c[nH]c(=O)[nH]c1=O`, the TGI with MOLT-4 leukemia, in the experiment on HL-60(TB) leukemia, in the experiment with HCT-116 colon, in the experiment with LOX IMVI melanoma, in the experiment on UO-31 renal and in the experiment on IGROV1 ovarian was greater than 100 µM throughout. In addition, the TGI in the experiment with UACC-62 melanoma and with ACHN renal was greater than 100 µM throughout.

`CN(C)NC(=O)/C(=C/c1ccc(Cl)cc1)NC(=O)c1ccccc1`: the TGI in the experiment with MOLT-4 leukemia, in the experiment on HL-60(TB) leukemia, in the experiment on HCT-116 colon, in the experiment with LOX IMVI melanoma, in the experiment on UO-31 renal and with IGROV1 ovarian was greater than 100 µM each time. Also, the TGI in the experiment with UACC-62 melanoma and in the experiment with ACHN renal was greater than 100 µM in each case.
